One experiment addresses Sonic Hedgehog (Shh) (Homo sapiens, UniProt Q15465). As to the kind of experiment: Shh binding assay.
Another experiment addresses Shh. As to conditions: read-out: KD (Shh); cited from earlier work.
In experiment [1] the target is HHIP L2 linear peptide L2 loop (Homo sapiens) (UniProt Q96QV1). As to conditions: cited from earlier work.
Experiment [2] concerns the target Sonic Hedgehog construct with N-terminal poly-His tag and TEV-cleavable linker ("Shh") (UniProt Q15465). Description: ELISA. A general note: ELISA stands for enzyme-linked immunosorbent assay.
The next experiment has as its target Keap1 Kelch domain (KKD) (Homo sapiens, UniProt Q14145). As to the kind of experiment: Keap1 Kelch domain direct binding assay.
In experiment [3] the target is Kelch domain of Kelch-like ECH-associated protein 1 (Keap1). As to the kind of experiment: ELISA.

Numbered stars: 1 amine (or outer) side, 2 acyl side, 3 side chain; on linkers, the order of the positions; unused ones are H or OH. Bridge positions count the residues as written; N and C are the ends. Square brackets hold non-standard residues; d marks the D form. Ends that are not written are not given here. Peptide text beside a SMILES is read from it. CH2CH2 = C(C[*:2])[*:1]

What is called Kd is a measure of binding affinity in units of concentration.

Chain of Keap1 Kelch domain (KKD) (Q14145 321-609 limits assumed): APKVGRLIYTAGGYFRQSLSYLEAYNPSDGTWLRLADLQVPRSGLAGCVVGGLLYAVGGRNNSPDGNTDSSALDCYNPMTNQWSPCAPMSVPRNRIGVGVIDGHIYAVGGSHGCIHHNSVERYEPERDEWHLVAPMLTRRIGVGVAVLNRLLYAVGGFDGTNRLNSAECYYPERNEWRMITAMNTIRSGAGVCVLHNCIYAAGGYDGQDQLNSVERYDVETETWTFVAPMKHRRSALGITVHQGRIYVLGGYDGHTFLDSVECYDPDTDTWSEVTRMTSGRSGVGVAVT

On Sonic Hedgehog (Shh), `CSCC[C@@H]1NC(=O)[C@H](C)NC(=O)[C@H](CCC(=O)O)NC(=O)[C@@H](NC(=O)[C@@H]2CCCN2C(=O)[C@H](CO)NC(=O)[C@H](CO)NC(=O)CNC(=O)[C@H](CO)NC(=O)CNC(=O)[C@H](CO)NC(=O)CNC(=O)[C@H](CCCCN)NC(=O)[C@H](CC(=O)O)NC(=O)[C@H](CC(=O)O)NC(=O)[C@H](CC(=O)O)NC(=O)[C@H](CC(=O)O)NC(=O)[C@H](CCCCN)NC(=O)[C@H](Cc2ccc(O)cc2)NC(=O)[C@H](CC(=O)O)NC(=O)[C@@H](N)CCSC)Cc2ccc(cc2)OCCSC[C@@H](C(=O)N[C@H](C(=O)N[C@@H](CC(=O)O)C(=O)N[C@H](C(=O)O)[C@@H](C)O)[C@@H](C)O)NC(=O)[C@H](CCSC)NC(=O)[C@H](CC(=O)O)NC1=O` [Shh-m1] (H-MDYKDDDDKGSGSGSSPYEAMDMCTDT-OH; linker 18-24 via CH2CH2; N-terminus and C-terminus assumed) yielded a Kd of 550 nM.
For `CSCC[C@@H]1NC(=O)[C@H](CCC(=O)O)NC(=O)[C@H](CCC(=O)O)NC(=O)[C@@H](NC(=O)[C@H](CC(=O)O)NC(=O)[C@H](CC(=O)O)NC(=O)[C@H](CC(C)C)NC(=O)[C@@H](NC(=O)[C@H](CO)NC(=O)CNC(=O)[C@H](CO)NC(=O)CNC(=O)[C@H](CCCCN)NC(=O)[C@H](CC(=O)O)NC(=O)[C@H](CC(=O)O)NC(=O)[C@H](CC(=O)O)NC(=O)[C@H](CC(=O)O)NC(=O)[C@H](CCCCN)NC(=O)[C@H](Cc2ccc(O)cc2)NC(=O)[C@H](CC(=O)O)NC(=O)[C@@H](N)CCSC)[C@@H](C)O)Cc2ccc(cc2)OCCSC[C@@H](C(=O)N[C@@H](CO)C(=O)N[C@@H](CC(=O)O)C(=O)N[C@H](C(=O)O)[C@@H](C)O)NC(=O)CNC(=O)[C@H](CC(=O)O)NC1=O` [cyclic version of the HHIP L2 sequence] (H-MDYKDDDDKGSGSTLDDYEEMDGCSDT-OH; linker 18-24 via CH2CH2; C-terminus assumed), the “fold lower affinity vs Shh-m1” value on Sonic Hedgehog (Shh) is given as around 7 fold.
With `O=C(C[C@@H]1C/C=C/CCC(=O)O[C@H](c2ccccc2)CNC1=O)NCc1ccc(Cl)cc1` [robotnikinin], the Kd at Shh is 3100 nM.
Take Sonic Hedgehog (from UniProt Q15465): the Kd in experiment [1] was 150000 nM.
In the case of “TLSW(Y*)EAMDMCTD (sidechain bridge or staple) [HL2-m5]”, the Kd at Shh is 170 nM.
In experiment [2], “cyclic version of the HHIP L2 sequence (from UniProt Q96QV1 375-387) (peptide)” came in with a Kd of 3600 nM.
Take “cyclo[Y*D(X)ETGEC] (sidechain bridge or staple) [KKD(6X)-m1]”: at Keap1 Kelch domain (KKD), the “fold higher affinity vs KKD-m1” value is on record as around 3 fold.
As to “cyclo[Y*D(X)ETGEC] (sidechain bridge or staple) [KKD(6X)-m2]”, the “fold higher affinity vs KKD-m1” value on Keap1 Kelch domain (KKD) was around 3 fold.
With [O2beY]DAETGEC (thioether 1-8) [KKD(6X)-m1], in experiment [3], the Kd stood at 40 nM.
For [O2beY]DIETGEC (thioether 1-8) [KKD(6X)-m2], the Kd in experiment [3] is 40 nM.

The values above are taken from publication PMC7099587 (ACS Central Science, 2020).
